From US20250345384A1, “STABLE CYCLODEXTRIN FREE CARFILZOMIB FORMULATION” (AMGEN INC., priority 2020, published 2025) come the findings set out here.

The term solubility denotes the concentration that dissolves in the medium under given conditions.

The structures appear in SMILES notation. Converted amounts (≈) assume the structure as drawn.

Data set [1] can be described thus: physchem. The settings on record: pH 7, water.
Data set [2] can be described thus: Visual comparison of carfilzomib in water, cyclodextrin and cyclodextrin-free formulations (FIG. 2). Format: physicochemical. Conditions: CFZ-API concentration of 2 mg/mL. The text has this:
Carfilzomib (CFZ) is a proteasomal inhibitor and active ingredient of KYPROLIS®, a lyophilized drug product which is for the treatment of multiple myeloma. The current commercial formulation of KYPROLIS contains CAPTISOL®, which is a cyclodextrin used to help solubility the CFZ-API. The present invention provides a stable, cyclodextrin-free formulations for CFZ-API in an aqueous solution which is suitable for injection. FIG. 2 illustrates (a) insoluble CFZ-API in water (b) current commercial KYPROLIS formulation containing CAPTISOL (middle vial); and (c) the cyclodextrin free chlorobutanol formulation of the invention (right vial). Each sample contains CFZ-API concentration of 2 mg/mL.

In the case of `CC(C)C[C@H](NC(=O)[C@H](CCc1ccccc1)NC(=O)CN1CCOCC1)C(=O)N[C@@H](Cc1ccccc1)C(=O)N[C@@H](CC(C)C)C(=O)[C@@]1(C)CO1` [CFZ-API, Carfilzomib], the solubility in data set [1] was 2 µg/mL (≈ 2.78 µM). Besides, the “Visual solubility in water” value in data set [2] is “insoluble”.
